Entries after “also recorded” stand apart in the source; their conditions may differ.
Key:
gamma-globin mRNA = assay: Gamma-globin gene expression in K562 cell culture by Real Time PCR; type: cell-based, human; conditions: for gene expression of gamma-globin: K562 erythroleukemic cells, Real Time PCR, 5-100 μM, 24-96 h
Protocol: (§1) The human leukemia cell line K562 ATCC (American Type Culture Collection), Philadelphia, Pa., USA was used. The cells were cultured in DMEM median (Dulbecco's Modified Eagle Medium, Invitrogen, USA) containing 10% of fetal bovine serum and glutamine. The cells were maintained at 37° C. under a 5% CO2 atmosphere. For the experiments, the cells were incubated at a density of 1×10^5 cells/mL. In order to carry out the culture with hemin (30 uM), it was added 72 hours before the beginning of the experiment with the desired compound.
(§2) The 0-hour time consisted in removing non-treated K562 cells. From this point, the respective compounds were added at the desired concentrations (5, 30, 60 and 100 uM), the cells were then maintained for […] under culture, without a new addition of any compound or substitution of the culture medium. Cell collections were performed at the following times: 0, 24, 48, 72 and 96 hours. The morphology of the cells was analyzed at these points through cytospin slides stained with Leishman and the cell viability was performed by staining with trypan blue in a Neuberger's chamber.
The extraction method with TRIzol reagent (Gibco-BRL, Gaithersburg, Md.) according to the manufacturer's instructions was used in order to obtain the RNA from K562. The sample containing K562 and TRIzol was incubated for 5 minutes at room temperature in order to achieve complete dissociation of the nucleoproteic complexes, 200 μL of chloroform (CHCl3) was added and thoroughly stirred, and incubation was again performed by 5 minutes at room temperature. After centrifugation for 15 minutes at 19,000 g at a temperature of 4° C., the supernatant was obtained and stored in another tube, proceeding immediately to the step of precipitation with 500 μL of cold isopropanol. After homogenization, a new incubation was carried out for 10 minutes at room temperature, followed by centrifugation for 10 minutes at 19,000 g at 4° C. The supernatant was disposed of and 800 μL of 70% cold ethanol was added to the precipitate, with a new centrifugation being carried out for 5 minutes at 14,000 at 4° C. […]
The RNA samples obtained were subjected to the complementary DNA (cDNA) synthesis using the Superscript III RTTM kit (Invitrogen, Life Technologies). After reading in a spectrophotometer (Gene Quant-Pharmacia, USA) and quantification, 3 μg of RNA were treated with the enzyme DNase I (Invitrogen, Life Technologies), for removal of contaminant DNA. […]
After reading in a spectrophotometer (Gene Quant-Pharmacia, USA) and quantification, cDNA aliquots were used as template in quantitative real-time PCR reactions. The technique consists in optically monitoring the fluorescence emitted during the PCR reaction, by means of the binding of a specific probe or dye to the newly synthesized strand. […]

K562 cells = assay: Cell viability in K562 culture (trypan blue); type: cell-based, human
Protocol: as §1, §2

| SMILES | concentration showing activity on gamma-globin expression (gamma-globin mRNA; K562 cells, 48 hours) | gene expression of gamma-globin (gamma-globin mRNA) | cell viability (K562 cells; at 0 h, pattern maintained during the assay) | gene expression of gamma-globin in the presence of hemin versus absence of hemin (gamma-globin mRNA; K562 cells, hemin 30 uM, compared to the control) | cell viability (K562 cells; K562 assays with and without hemin, at the concentrations used) |
| --- | --- | --- | --- | --- | --- |
| Nc1ccc(S(=O)(=O)NO)cc1 [Compound IIA, 4-amino-N-hydroxybenzenesulphonamide] | 5 µM | higher activity than the control; also recorded: higher than the increase provided by compound IE | 97% |  |  |
| O=C1c2ccccc2C(=O)N1c1ccc(CCO[N+](=O)[O-])cc1 [Compound IE, 2-[4-(1,3-dioxo-1,3-dihydro-2H-isoindol-2-yl)phenyl]ethyl nitrate] |  | increasing the gene expression of gamma-globin |  | did not show a significantly higher activity | higher than 90% |

From patent US8314255B2, “Use of phthalimide and/or sulphonamide derivatives in the treatment of diseases which require reducing the TNF- α levels and an exogenous source of nitric oxide, phthalimide derivatives, sulphonamide derivatives, and a method for obtaining a sulphonamide derivative” (priority 2007, dated 2012)
